{"source": "paper PMC6279743", "about": "“A small molecule ApoE4-targeted therapeutic candidate that normalizes sirtuin 1 levels and improves cognition in an Alzheimer’s disease mouse model” (Scientific Reports, 2018)", "key": {"[1]": {"system": "N2a-E4 cells", "assay": "Lysate protein concentration (Bradford assay)", "type": "cell-based, murine", "settings": "A03 at 5 or 50 μM", "protocol": "Compound in medium (50 µL, 2X) was loaded into a 96-well plate, then 4 × 10^4 cells were added to each well; 24 hrs later the medium was removed and cells lysed. Lysate protein concentration was determined using the Bradford assay according to the manufacturer’s instructions. SirT1 was determined in lysates using the SirT1 AlphaLISA as described above."}, "[2]": {"system": "SirT1 mRNA", "parameters": "method as in PMID 26791201", "settings": "original studies, A172-E4 cells; cited from earlier work"}, "[3]": {"assay": "Parallel Artificial Membrane Permeability Assay (PAMPA; IAM column)", "type": "in vitro ADME", "protocol": "We used L(+)tartaric acid to isolate the L-enantiomer salt and D(-) tartaric acid to isolate the D-enantiomer salt, followed by neutralization of the salt with NaOH and re-crystallization to obtain the enantiomers. Enantiomer abundance (Supplementary Fig. S4) was determined by HPLC using a Chiralpak IB column. Isopropanol (0.2% diethylamine)/hexanes was used for gradient elution with 5–50% isopropanol (0.2% diethylamine) for 11 min, a Chiralpak IB column, and with sample (1 μL, 1.25 mg/mL) injection, 220 nm wavelength detection, and a flow rate of 1 mL/min. […] The L-alanine analog co-elutes with enantiomer-1 while the D-alanine analog co-elutes with enantiomer-2. Analysis of the enantiomers and A03 in the Parallel Artificial Membrane Permeability Assay (PAMPA) was performed and is described in Supplementary Methods. […]\nPAMPA. An IAM.PC.DD2 Regis Technologies analytical (10 cm x 4.6 mm) column wherein phospholipid is bonded on 10 μm, 300 Å, spherical aminopropyl silica and end capped with C10 and C3 amides was used to determine membrane permeability of A03, E1 and E2. An isocratic method was used with a mobile phase comprising acetonitrile:PBS (pH 5.6) equal to 35:65, an injection volume of 5 µL, and a flow rate of 1 mL/min. The parameters determined are Tr = retention time of compound; KIAM= (Tr-T0)/T0; T0= is the delay time of the column, determined by use of 100 µg/mL citric acid) and was T0= 1.24 min; and (KIAM/MW4)*10-(10). The molecular weight of all three compounds was 255.74 g/mol. […]\nSupplementary Fig. S1. […] (a) Transient transfection with either\nApoE3 or E4 decreased SirT1 levels as compared to empty vector (Pc/DMSO), but the decrease was greater with […]"}}, "data": [{"compound": "CC(N)C(=O)OC(C)(C)Cc1ccc(Cl)cc1", "note": "(centres unmarked) [A03, alaproclate]", "values": [{"measurement": "Protein concentration in cell lysates (viability surrogate)", "setting": "[1]", "value": "did not increase protein concentration"}, {"measurement": "SirT1 mRNA", "setting": "[2]", "value": "increase in SirT1 mRNA"}, {"measurement": "retention time (Tr) in PAMPA", "setting": "[3]; IAM.PC.DD2 column, acetonitrile:PBS (pH 5.6) 35:65", "value": 3.31}, {"measurement": "KIAM", "setting": "[3]; KIAM = (Tr-T0)/T0, T0 = 1.24 min", "value": 1.67}, {"measurement": "(KIAM/MW^4) * 10^−(10)", "setting": "[3]; MW 255.74 g/mol", "value": 3.90}]}]}
